Results taken from US20080280996A1, “Use of Carophyllenes in the Manufacture of Medicaments and Treatment of Bodily Conditions of Inflammation and Inflammatory Pain” (priority 2004, published 2008).

Legend:
COX-2 = assay: Expression of enzyme COX-2 in carrageenin-injected rat paw (Western blot); type: in vivo; conditions: 50 mg/kg orally 60 minutes before carrageenin 300 μg/paw, subcutaneous paw tissue
Procedure: The expression of enzymes COX-2 and iNOS were determined by Western blot according to the methodology described by Medeiros et. al. in the publication Circ Res. 28:1375-1382, 2004. Male 160-180 g rats were orally given 50 mg/kg of trans-caryophyllene. Animals treated with 0.9% (0.1 ml/10 g) saline were used as control. Another group of animals was treated with 0.5 mg/kg dexamethasone, subcutaneously, 4 hours before the test, and used as positive control. After 60 minutes, the animals received intraplantar injections of 100 μl of carrageenin (300 μg/paw) and were sacrificed after 180 minutes, and subcutaneous paw tissue was removed […] after the carrageenin injection. […] The protein concentration was determined by the Bradford method (BioRad Laboratories Inc. kit, Milan, Italy). […] The bands thus obtained were quantified using a chemoluminescence kit and densitometry analysis (relative units) in radiographic films. Graph 10 below (each result represents the average of 5 animals, and the vertical bars the mean standard error deviation) compares inhibition of expression of the COX2 enzymes, obtained by the administration of alpha-humulene and trans-caryophyllene, when evaluated in the subcutaneous tissue or the paw injected with carrageenin, compared to the expression of COX2 induced by carrageenin obtained by treatment with dexomethasone.

IL-1β = assay: Levels of pro-inflammatory cytokine IL-1β in carrageenin-injected rat paw (Elisa); type: in vivo; conditions: 50 mg/kg orally 60 minutes before carrageenin 300 μg/paw, tissue after 180 minutes
Procedure: The test used below is described by Campos et. al. in the publication Br. J. Pharmacol. 135: 1107-1114, 2002, with minor modifications. Male 160-180 g rats were orally given 50 mg/kg of alpha-humulene. Animals treated with 0.9% (0.1 ml/10 g) saline were used as control. Another group of animals was treated with 0.5 mg/kg dexamethasone, subcutaneously, 4 hours before the test, and used as positive control. After 60 minutes, the animals received intraplantar injections of 100 μl of carrageenin (300 μg/paw) and were sacrificed after 180 minutes. Control animals received saline. The subcutaneous tissue of the injected paws was removed and put in a phosphate buffer containing 0.5% tween 20, 0.1 mM benzametonium chloride, 10 mM EDTA, 2 μg/m aprotinin, 0.1 mM PMSF (phenyl methyl sulfonyl fluoride) and 0.5% BSA (bovine serum albumin). The tissues were homogenized and centrifuged at 3000 g, for 10 min, at −4° C. The supernatant was used in the test. The levels of IL-1β were measures with an Elisa kit, according to the manufacturer's instructions (R & D Systems®, USA). The tests were performed in duplicate, and repeated three times. The answers are expressed in pg/mg of tissue. […]

[1] = tested on: carrageenin-induced inflammatory nociception in the hind paw; assay: Inflammatory nociception induced by carrageenin (von Frey filament); type: in vivo; conditions: mice, carrageenin 300 μg per paw intraplantar; alpha-humulene 50 mg/kg orally or paracetamol 600 mg/kg orally, 1 h before; evaluated after 3, 4 and 6 hours
Procedure: The evaluation methodology used in this test is described by Vaz et al. in J. Pharmacol. Exp. Ther. 278:304-312, 1996. Male mice (25-35 g) were systemically (orally) treated with alpha-humulene, 50 mg/kg, administered 1 hour before the experiment. Animals treated with 0.9% saline solution (0.1 ml/10 g) were used as the control. Another group of animals was treated with paracetamol (600 mg/kg, orally, administered 1 h before the treatment), that was used as positive control. For the induction of inflammatory pain, the animals received an intraplantar injection of 0.05 ml of carrageenin (300 μg per paw) at the plantar surface of the right hind paw. […] The nociception was evaluated with a Von Frey filament (0.4 g) after 3, 4 and 6 hours. […] The filament was applied to the right hind paw, complying with the criteria of (1) the application was perpendicular to the plantar surface, with enough pressure to cause the filament to bend, thus obtaining total pressure; (2) the animals were evaluated when the four paws were touching the screen; (3) the paw withdrawal response was considered when the animal removed the paw entirely from the support screen; (4) each animal was stimulated 10 consecutive times, each stimulation lasting 1 second; (5) each paw withdrawal event was considered as 10% of the response, with 10 withdrawal events corresponding to 100% response. […]

[2] = reference: Carcinogenesis (2002), 23(5), 795-802; cited from earlier work

Compound	expression of enzymes COX2 induced by carrageenin in the paws of rats (COX-2)	production of pro-inflammatory cytokine IL-1β induced by carrageenin in the paws of rats (IL-1β)	inflammatory nociception (paw withdrawal response to 0.4 g von Frey filament) [1]	anti-inflammatory or chemo-therapic effects [2]
C/C1=C\CC/C(C)=C/CC(C)(C)/C=C/C1 [alpha-humulene]	markedly inhibited the expression	markedly inhibited the production	reduced the inflammatory nociception	virtually inactive
C=C1CC/C=C(\C)CC[C@@H]2[C@@H]1CC2(C)C [trans-caryophyllene]	markedly inhibited the expression			
